Tested on: KMO
Assay: KMO activity assay: L-Kynurenine hydroxylation to 3-Hydroxy-Kynurenine, quantified by LC/MS
Format: biochemical
Conditions: compound at 10 uM; footnote: some portion of activity of amides may be due to contribution of acid precursor
Experimental: A generalized procedure for monitoring L-Kynurenine (KYN) hydroxylation to form product 3-Hydroxy-Kynurenine (3OH-KYN) by LC/MS is described below. Product is quantified by multiple reaction monitoring using MS.
A method of monitoring L-Kynurenine (KYN) hydroxylation to form product 3-Hydroxy-Kynurenine (3OH-KYN) by LC/MS is described below. Product is quantified by multiple reaction monitoring.
• Compound: Stock concentrations: 10 mM in 100% DMSO • Enzyme: KMO enzyme prepared at Evotec via mitochondria isolation from CHO-GST HIS KMO cells • Substrate: L-Kynurenine (Sigma: Cat #K3750) • [stock concentration: 10 mM in 100 mM potassium phosphate buffer, pH 7.4]
A method of monitoring L-Kynurenine (KYN) hydroxylation to form 3-Hydroxy-Kynurenine (3OH-KYN) by LC/MS is described. Product is quantified by multiple reaction monitoring (MRM method).

SMILES	% Inhibition at 10 uM
O=C(CCN1CCCC1)N1CCN(C(=O)c2cc(-c3ccc(Cl)c(Cl)c3)ncn2)CC1 [1-{4-[6-(3,4-Dichloro-phenyl)-pyrimidine-4-carbonyl]-piperazin-1-yl}-3-pyrrolidin-1-yl-propan-1-one]	68.48%
O=C(c1cc(-c2ccc(Cl)c(Cl)c2)ncn1)N1CCN(C(=O)N2CCOCC2)CC1 [[6-(3,4-Dichloro-phenyl)-pyrimidin-4-yl]-[4-(morpholine-4-carbonyl)-piperazin-1-yl]-methanone]	40.38%
O=C1CN(C(=O)c2cc(-c3ccc(F)c(F)c3)ncn2)CCN1 [4-[6-(3,4-Difluoro-phenyl)-pyrimidine-4-carbonyl]-piperazin-2-one]	100.995%
Cl.O=C(Nc1ccc(N2CCOCC2)cc1)c1cc(-c2ccc(Cl)c(Cl)c2)ncn1 [6-(3,4-Dichloro-phenyl)-pyrimidine-4-carboxylic acid (4-morpholin-4-yl-phenyl)-amide hydrochloride salt]	76.95%
CC1(C)CC(NC(=O)c2cc(-c3ccc(Cl)c(Cl)c3)ncn2)CC(C)(C)N1 [6-(3,4-Dichloro-phenyl)-pyrimidine-4-carboxylic acid (2,2,6,6-tetramethyl-piperidin-4-yl)-amide]	100.11%
CC(NC(=O)c1cc(-c2ccc(Cl)c(Cl)c2)ncn1)c1ccc2c(c1)NC(=O)CO2 (stereo not shown) [6-(3,4-Dichloro-phenyl)-pyrimidine-4-carboxylic acid [1-(3-oxo-3,4-dihydro-2H-benzo[1,4]oxazin-6-yl)-ethyl]-amide]	99.66%
N[C@H]1CCN(C(=O)c2cc(-c3ccc(Cl)c(Cl)c3)ncn2)C1 [((S)-3-amino-pyrrolidin-1-yl)-[6-(3,4-dichloro-phenyl)-pyrimidin-4-yl]-methanone]	93.99%
CN(CCN)C(=O)c1cc(-c2ccc(Cl)c(Cl)c2)ncn1.O=C(O)C(F)(F)F [6-(3,4-Dichloro-phenyl)-pyrimidine-4-carboxylic acid (2-amino-ethyl)-methyl-amide, trifluoro-acetic acid salt]	64.52%
C[C@@H]1CN(C(=O)c2cc(-c3ccc(Cl)c(Cl)c3)ncn2)C[C@H](C)N1.O=C(O)C(F)(F)F [[6-(3,4-Dichloro-phenyl)-pyrimidin-4-yl]-((3S,5R)-3,5-dimethyl-piperazin-1-yl)-methanone, trifluoro-acetic acid salt]	95.92%
Cc1noc(C)c1NC(=O)c1cc(-c2cccc(Cl)c2)ncn1 [6-(3-Chloro-phenyl)-pyrimidine-4-carboxylic acid (3,5-dimethyl-isoxazol-4-yl)-amide]	89.92%
O=C1CN(C(=O)c2cc(-c3ccc(Cl)c(Cl)c3)ncn2)CCN1CC1CCOCC1 [4-[6-(3,4-Dichloro-phenyl)-pyrimidine-4-carbonyl]-1-(tetrahydro-pyran-4-ylmethyl)-piperazin-2-one]	99.91%
O=C(c1cc(-c2ccc(Cl)c(Cl)c2)ncn1)N1CCC[C@H](O)C1 [[6-(3,4-Dichloro-phenyl)-pyrimidin-4-yl]-((S)-3-hydroxy-piperidin-1-yl)-methanone]	99.98%
Cc1ccc(NC(=O)c2cc(-c3ccc(Cl)c(Cl)c3)ncn2)nn1 [6-(3,4-Dichloro-phenyl)-pyrimidine-4-carboxylic acid (6-methyl-pyridazin-3-yl)-amide]	77.125%
C[C@H](CO)NC(=O)c1cc(-c2ccc(Cl)c(Cl)c2)ncn1 [6-(3,4-Dichloro-phenyl)-pyrimidine-4-carboxylic acid ((R)-2-hydroxy-1-methyl-ethyl)-amide]	97.775%
C[C@H](NC(=O)c1cc(-c2ccc(Cl)c(Cl)c2)ncn1)c1ccncc1 [6-(3,4-Dichloro-phenyl)-pyrimidine-4-carboxylic acid ((S)-1-pyridin-4-yl-ethyl)-amide]	91.79%
Cl.O=C(Nc1cccc(C2CNCCN2)c1)c1cc(-c2ccc(Cl)c(Cl)c2)ncn1 (stereo not shown) [6-(3,4-Dichloro-phenyl)-pyrimidine-4-carboxylic acid (3-piperazin-2-yl-phenyl)-amide hydrochloride salt]	96.58%
Cl.O=C(Nc1ccc(N2CCNCC2)cc1)c1cc(-c2ccc(Cl)c(Cl)c2)ncn1 [6-(3,4-Dichloro-phenyl)-pyrimidine-4-carboxylic acid (4-piperazin-1-yl-phenyl)-amide hydrochloride salt]	93.13%
O=C1CN(C(=O)c2cc(-c3ccc(Cl)c(Cl)c3)ncn2)CCN1 [4-[6-(3,4-Dichloro-phenyl)-pyrimidine-4-carbonyl]-piperazin-2-one]	101.6%
CN1CCN(c2ccc(NC(=O)c3cc(-c4ccc(Cl)c(Cl)c4)ncn3)cc2)CC1.Cl [6-(3,4-Dichloro-phenyl)-pyrimidine-4-carboxylic acid [4-(4-methyl-piperazin-1-yl)-phenyl]-amide hydrochloride salt]	89.6%

SMILES	% Inhibition at 10 uM
CN1CCN(c2cccc(NC(=O)c3cc(-c4ccc(Cl)c(Cl)c4)ncn3)c2)CC1 [6-(3,4-Dichloro-phenyl)-pyrimidine-4-carboxylic acid [3-(4-methyl-piperazin-1-yl)-phenyl]-amide]	75.48%
O=C(Nc1cccnc1)c1cc(-c2cc(Cl)ccc2F)ncn1 [6-(5-Chloro-2-fluoro-phenyl)-pyrimidine-4-carboxylic acid pyridin-3-yl-amide]	84.21%
O=C(Nc1ccc(OCCN2CCOCC2)cc1)c1cc(-c2ccc(Cl)c(Cl)c2)ncn1 [6-(3,4-Dichloro-phenyl)-pyrimidine-4-carboxylic acid [4-(2-morpholin-4-yl-ethoxy)-phenyl]-amide]	100.44%
O=C1CN(C(=O)c2cc(-c3ccc(Cl)c(Cl)c3)ncn2)CCN1CCN1CCCC1 [4-[6-(3,4-Dichloro-phenyl)-pyrimidine-4-carbonyl]-1-(2-pyrrolidin-1-yl-ethyl)-piperazin-2-one]	99.275%
O=C(N[C@H](CO)C(=O)O)c1cc(-c2ccc(Cl)c(Cl)c2)ncn1 [(R)-2-{[6-(3,4-Dichloro-phenyl)-pyrimidine-4-carbonyl]-amino}-3-hydroxy-propionic acid]	91.12%
C[C@H](NC(=O)c1cc(-c2cccc(F)c2)ncn1)c1ccccc1 [6-(3-Fluoro-phenyl)-pyrimidine-4-carboxylic acid ((S)-1-phenyl-ethyl)-amide]	90.15%
O=C(N[C@@H]1CCOC1)c1cc(-c2ccc(Cl)c(Cl)c2)ncn1 [6-(3,4-Dichloro-phenyl)-pyrimidine-4-carboxylic acid (tetrahydro-furan-3R-yl)-amide]	41.5%
O=C(c1cc(-c2ccc(Cl)c(Cl)c2)ncn1)N1CCNCC1 [[6-(3,4-dichloro-phenyl)-pyrimidin-4-yl]-piperazin-1-yl-methanone]	71.34%
CN(c1cc(-c2ccc(Cl)c(Cl)c2)ncn1)S(=O)(=O)c1ccccc1 [N-[6-(3,4-dichlorophenyl)pyrimidin-4-yl]-N-methylbenzenesulfonamide]	27%
CC1C(=O)NCCN1C(=O)c1cc(-c2ccc(Cl)c(Cl)c2)ncn1 (stereo not shown) [4-[6-(3,4-Dichloro-phenyl)-pyrimidine-4-carbonyl]-3-methyl-piperazin-2-one]	97.9%
O=C(c1cc(-c2ccc(Cl)c(Cl)c2)ncn1)N1CCc2ccc(Cl)cc21 [(6-Chloro-2,3-dihydro-indol-1-yl)-[6-(3,4-dichloro-phenyl)-pyrimidin-4-yl]-methanone]	98.22%
C[C@H](O)CNC(=O)c1cc(-c2ccc(Cl)c(Cl)c2)ncn1 [6-(3,4-Dichloro-phenyl)-pyrimidine-4-carboxylic acid ((S)-2-hydroxy-propyl)-amide]	86.83%
O=C(c1cc(-c2ccc(Cl)c(Cl)c2)ncn1)N1CCC[C@@H](O)C1 [[6-(3,4-Dichloro-phenyl)-pyrimidin-4-yl]-((R)-3-hydroxy-piperidin-1-yl)-methanone]	99.86%
O=C(O)c1cc(-c2cccc(Br)c2)ncn1 [6-(3-Bromo-phenyl)-pyrimidine-4-carboxylic acid]	102.1%
CC(C)OC(=O)c1cc(-c2ccc(Cl)c(Cl)c2)ncn1 [propan-2-yl 6-(3,4-dichlorophenyl)pyrimidine-4-carboxylate]	100%
C[C@H](NC(=O)c1cc(-c2ccc(F)c(F)c2)ncn1)c1ccccc1 [6-(3,4-Difluoro-phenyl)-pyrimidine-4-carboxylic acid ((S)-1-phenyl-ethyl)-amide]	100.39%
O=C(Nc1cncnc1)c1cc(-c2ccc(Cl)cc2)ncn1 [6-(4-Chloro-phenyl)-pyrimidine-4-carboxylic acid pyrimidin-5-ylamide]	56.49%
O=S(=O)(Nc1cc(-c2ccc(Cl)c(Cl)c2)ncn1)c1ccccc1F [N-[6-(3,4-dichlorophenyl)pyrimidin-4-yl]-2-fluorobenzene-1-sulfonamide]	103%

Reference: US9428464B2, “Kynurenine-3-monooxygenase inhibitors, pharmaceutical compositions, and methods of use thereof” (CHDI Foundation, Inc., priority 2011, dated 2016)
